Reference: US10058534B2, “Benzothiophene derivatives and compositions thereof as selective estrogen receptor degraders” (NOVARTIS AG, priority 2013, dated 2018)

Biological target: ERα (Homo sapiens (Human), UniProt P03372)
Assay: ERα degradation (MCF7 cells), in-cell Western
Assay type: cell-based
Details: for % ERα remaining: remaining ERα protein at 10 μM ligand, relative to DMSO control
Procedure: ERα Degradation (MCF7 Cells)
The column titled MCF7 IC50 reports the inflection point of the inhibition of transcription in MCF7 cells as described above. Percentage ERα remaining reports the remaining ERα protein measured at 10 μM concentration of the ligand as described above. The column ERα IC50 reports the inflection point of the degradation in response to the ligand concentration.

[1] = inflection point of the degradation in response to ligand concentration, MCF7 cells

ERα, sequence (P03372 whole entry): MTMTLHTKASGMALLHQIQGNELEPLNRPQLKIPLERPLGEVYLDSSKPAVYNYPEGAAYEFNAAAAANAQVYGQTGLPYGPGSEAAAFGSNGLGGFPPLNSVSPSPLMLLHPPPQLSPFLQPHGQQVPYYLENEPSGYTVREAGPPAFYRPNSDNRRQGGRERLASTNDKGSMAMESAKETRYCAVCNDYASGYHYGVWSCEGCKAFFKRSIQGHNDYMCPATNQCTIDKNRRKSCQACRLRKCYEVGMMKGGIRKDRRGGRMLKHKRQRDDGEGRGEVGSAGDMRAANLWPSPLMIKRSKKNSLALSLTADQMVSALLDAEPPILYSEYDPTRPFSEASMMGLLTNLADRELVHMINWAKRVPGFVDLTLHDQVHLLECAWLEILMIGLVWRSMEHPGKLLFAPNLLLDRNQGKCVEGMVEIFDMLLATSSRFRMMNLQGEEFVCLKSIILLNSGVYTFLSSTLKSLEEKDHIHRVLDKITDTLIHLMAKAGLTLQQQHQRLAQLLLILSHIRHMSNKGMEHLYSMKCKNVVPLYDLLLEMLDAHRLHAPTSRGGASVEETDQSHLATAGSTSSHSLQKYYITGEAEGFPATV

| SMILES | DC50 (inflection point of the degradation in response to ligand concentration, MCF7 cells, read-out: ERα IC50) [nM] | % ERα remaining (MCF7 cells) [%] | IC50 [1] [nM] | ER Percentage remaining (degradation potential, comparison of X position) [Percentage] |
| --- | --- | --- | --- | --- |
| Cc1cc(F)ccc1-c1sc2cc(O)ccc2c1Oc1ccc(/C=C/C(=O)NO)cc1 [Example 32, (E)-3-(4-((2-(4-fluoro-2-methylphenyl)-6-hydroxybenzo [b]thiophen-3-yl)oxy)phenyl)-N-hydroxyacrylamide] | 17 | 25 | – | – |
| O=C(/C=C/c1ccc(Oc2c(-c3ccc(O)cc3)sc3cc(O)ccc23)cc1)NCCC(F)(F)F [Example 31, (E)-3-(4-((6-hydroxy-2-(4-hydroxyphenyl)benzo[b]thiophen-3-yl)oxy)phenyl)-N-(3,3,3-trifluoropropyl)acrylamide] | – | 45 | 1 | – |
| O=C(O)/C=C/c1ccc(Oc2c(-c3ccccc3C(F)(F)F)sc3cc(O)ccc23)cc1 [Example 8, (E)-3-(4-((6-hydroxy-2-(2-(trifluoromethyl)-phenyl)benzo[b]thiophen-3-yl)oxy)phenyl)-acrylic acid] | – | 17 | 1 | – |
| O=C(/C=C/c1ccc(Oc2c(-c3ccc(O)cc3)sc3cc(O)ccc23)cc1)NCCO [Example 65, (E)-3-(4-((6-hydroxy-2-(4-hydroxyphenyl)benzo[b]thiophen-3-yl)oxy)phenyl)-N-(2-hydroxyethyl)acrylamide] | – | 47 | – | – |
| COc1ccc(-c2sc3cc(O)ccc3c2Oc2ccc(/C=C/C(=O)O)cc2)cc1 [Example 26, (E)-3-(4-((6-hydroxy-2-(4-methoxyphenyl)benzo[b]thiophen-3-yl)oxy)phenyl)acrylic acid] | – | 18 | 21 | – |
| O=C(O)/C=C/c1ccc(Oc2c(-c3ccc(C(F)(F)F)cc3)sc3cc(O)ccc23)cc1 [Example 3, (E)-3-(4-((6-hydroxy-2-(4-(trifluoromethyl)phenyl)benzo[b]thiophen-3-yl)oxy)phenyl)acrylic acid] | – | 18 | 34 | – |
| CCCn1cncc1/C=C/c1ccc(Oc2c(-c3ccc(O)cc3)sc3cc(O)ccc23)cc1 [Example 75, (E)-2-(4-hydroxyphenyl)-3-(4-(2-(1-propyl-1H-imidazol-5-yl)vinyl)phenoxy)benzo [b]thiophen-6-ol] | – | 41 | – | – |
| CCCc1nnc(/C=C/c2ccc(Oc3c(-c4ccc(F)cc4C)sc4cc(O)ccc34)cc2)o1 [compound 47, (E)-2-(4-fluoro-2-methylphenyl)-3-(4-(2-(5-propyl-1,3,4-oxadiazol-2-yl)vinyl)phenoxy)benzo [b]thiophen-6-ol] | – | 43 | – | – |
| O=C(O)/C=C/c1ccc(Oc2c(-c3ccc(O)cc3)sc3cc(O)ccc23)cc1 [drawing 5] | – | – | – | 41 |
| CC(C)(C)c1ccccc1-c1sc2cc(O)ccc2c1Oc1ccc(/C=C/C(=O)O)cc1 [Example 20, (E)-3-(4-((2-(2-(tert-butyl)phenyl)-6-hydroxybenzo[b]thiophen-3-yl)oxy)phenyl)-acrylic acid] | – | 22 | 1 | – |
| O=C(/C=C/c1ccc(Oc2c(-c3ccc(F)cc3)sc3cc(O)ccc23)cc1)NCCC(F)(F)F [Example 33, (E)-3-(4-((2-(4-fluorophenyl)-6-hydroxybenzo[b]thiophen-3-yl)oxy)phenyl)-N-(3,3,3-trifluoropropyl)-acrylamide] | – | 32 | 10 | – |
| CNC(=O)/C=C/c1ccc(Oc2c(-c3ccc(O)cc3)sc3cc(O)ccc23)cc1 [Example 66, (E)-3-(4-((6-hydroxy-2-(4-hydroxyphenyl)benzo[b]thiophen-3-yl)oxy)phenyl)-N-methylacrylamide] | – | 40 | 58 | – |

Further lines, results first:

| DC50 (inflection point of the degradation in response to ligand concentration, MCF7 cells, read-out: ERα IC50) [nM] | % ERα remaining (MCF7 cells) [%] | IC50 [1] [nM] | ER Percentage remaining (degradation potential, comparison of X position) [Percentage] | SMILES |
| --- | --- | --- | --- | --- |
| – | 23 | 26 | – | O=C(O)/C=C/c1ccc(Oc2c(-c3ccccc3)sc3cc(O)ccc23)cc1 [Example 60, (E)-3-(4-((6-hydroxy-2-phenylbenzo[b]thiophen-3-yl)oxy)phenyl)-acrylic acid] |
| – | 42 | – | – | C/C(=C\C(=O)O)c1ccc(Oc2c(-c3ccc(O)cc3)sc3cc(O)ccc23)cc1 [Example 62, (E)-3-(4-((6-hydroxy-2-(4-hydroxyphenyl)-benzo[b]thiophen-3-yl)oxy)phenyl)but-2-enoic acid] |
| – | 39 | 60 | – | Cn1nnnc1/C=C/c1ccc(Oc2c(-c3ccc(O)cc3)sc3cc(O)ccc23)cc1 [Example 54, (E)-2-(4-hydroxyphenyl)-3-(4-(2-(1-methyl-1H-tetrazol-5-yl)vinyl)phenoxy)benzo[b]thiophen-6-ol] |
| – | 22 | 15 | – | O=C(O)/C=C/c1ccc(Oc2c(-c3ccccc3[N+](=O)[O-])sc3cc(O)ccc23)cc1 [Example 21, (E)-3-(4-((6-hydroxy-2-(2-nitrophenyl)-benzo[b]thiophen-3-yl)oxy)phenyl)-acrylic acid] |
| – | 33 | 34 | – | Cn1nnc(/C=C/c2ccc(Oc3c(-c4ccc(O)cc4)sc4cc(O)ccc34)cc2)n1 [compound 55, (E)-2-(4-hydroxyphenyl)-3-(4-(2-(2-methyl-2H-tetrazol-5-yl)vinyl)-phenoxy)benzo[b] thiophen-6-ol] |
| – | 43 | 161 | – | CNC(=O)/C=C/c1ccc(Oc2c(-c3ccc(O)c(C)c3)sc3cc(O)ccc23)cc1 [Example 68, (E)-3-(4-((6-hydroxy-2-(4-hydroxy-3-methylphenyl)benzo[b]thiophen-3-yl)oxy)phenyl)-N-methylacrylamide] |
| – | 44 | – | – | Cc1cc(F)ccc1-c1sc2cc(O)ccc2c1Oc1ccc(/C=C/c2n[nH]c(=O)o2)cc1 [Example 48, (E)-5-(4-((2-(4-fluoro-2-methylphenyl)-6-hydroxybenzo [b]thiophen-3-yl)oxy)styryl)-1,3,4-oxadiazol-2(3H)-one] |
| – | 14 | 2 | – | Cc1cccc(-c2sc3cc(O)ccc3c2Oc2ccc(/C=C/C(=O)O)cc2)c1C [Example 13, (E)-3-(4-((2-(2,3-dimethylphenyl)-6-hydroxybenzo[b]thiophen-3-yl)oxy)phenyl)-acrylic acid] |
| – | 36 | 22 | – | O=c1nc(/C=C/c2ccc(Oc3c(-c4ccc(O)cc4)sc4cc(O)ccc34)cc2)cc(C(F)(F)F)[nH]1 [Example 50, (E)-4-(4-((6-hydroxy-2-(4-hydroxyphenyl)-benzo[b]thiophen-3-yl)oxy)styryl)-6-(trifluoromethyl) pyrimidin-2(1H)-one] |
| – | 19 | 7 | – | CC(=O)c1ccccc1-c1sc2cc(O)ccc2c1Oc1ccc(/C=C/C(=O)O)cc1 [Example 19, (E)-3-(4-((2-(2-acetylphenyl)-6-hydroxybenzo[b]thiophen-3-yl)oxy)phenyl)-acrylic acid] |
| – | 18 | 32 | – | CC(C)(C)c1ccc(-c2sc3cc(O)ccc3c2Oc2ccc(/C=C/C(=O)O)cc2)cc1 [Example 22, (E)-3-(4-((2-(4-(tert-butyl)phenyl)-6-hydroxybenzo[b]thiophen-3-yl)oxy)phenyl)-acrylic acid] |
| – | 23 | 22 | – | O=C(O)/C=C/c1ccc(Oc2c(-c3ccc(O)c(F)c3)sc3cc(O)ccc23)cc1 [Example 40, (E)-3-(4-((2-(3-fluoro-4-hydroxyphenyl)-6-hydroxybenzo[b]thiophen-3-yl)oxy)phenyl)acrylic acid] |
| – | 33 | – | – | C/C(=C\c1ccc(Oc2c(-c3ccc(O)cc3)sc3cc(O)ccc23)cc1)C(=O)O [Example 28, (E)-3-(4-((6-hydroxy-2-(4-hydroxyphenyl)-benzo[b]thiophen-3-yl)oxy)phenyl)-2-methylacrylic acid] |
